Test results: article PMC9409066, “Functional Characterization of the Venus Flytrap Domain of the Human TAS1R2 Sweet Taste Receptor” (International Journal of Molecular Sciences, 2022)
Where a chain is given by its changes, count along the chain named. Like-named read-outs stand apart in the source and are kept apart here. Marks after values point to notes of the source that are not given here. Residues, ends and D or L forms follow the SMILES beside them.

Tests used:
human panels = settings: molar basis, cited from earlier work
hTAS1R2-VFT = molecular target: T1, hTAS1R2-VFT (Homo sapiens, UniProt Q8TE23); test: Intrinsic tryptophan fluorescence ligand binding, hTAS1R2-VFT
T1 construct: followed by hTAS1R2-VFT (Ala22-Ser493) and another His6-tag at the C-terminus; His6 (thrombin-cleavable) (N); made in house
T1 sequence (Q8TE23 22-493): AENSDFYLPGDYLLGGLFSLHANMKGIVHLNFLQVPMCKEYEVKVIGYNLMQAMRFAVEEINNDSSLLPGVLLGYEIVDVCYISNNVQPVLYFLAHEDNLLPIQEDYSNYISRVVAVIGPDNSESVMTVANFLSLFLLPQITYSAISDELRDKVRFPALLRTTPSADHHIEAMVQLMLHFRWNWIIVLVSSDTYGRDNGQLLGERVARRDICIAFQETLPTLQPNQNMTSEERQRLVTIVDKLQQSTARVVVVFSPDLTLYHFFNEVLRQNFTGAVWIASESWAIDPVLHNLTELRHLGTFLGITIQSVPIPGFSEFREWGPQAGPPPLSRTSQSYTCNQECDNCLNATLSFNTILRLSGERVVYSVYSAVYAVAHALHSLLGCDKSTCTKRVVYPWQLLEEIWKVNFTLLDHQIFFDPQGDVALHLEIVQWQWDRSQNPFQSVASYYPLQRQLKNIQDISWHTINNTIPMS
From the text: Therefore, we tested the binding affinity of hTAS1R2-VFT using an intrinsic tryptophan fluorescence assay. This approach allows one to measure protein–ligand interactions by measuring the fluorescence emitted by tryptophan residues upon the titration of sweet ligands. This technique is very sensitive to changes in the local environment of fluorescent amino acid residues within a protein and has been used to measure protein–ligand binding interactions with mouse, human and cat TAS1R-VFTs. For this purpose, we determined the concentration response relationships for the intrinsic tryptophan fluorescence of hTAS1R2-VFT upon the addition of various sweet compounds.
Figure 4 Binding properties of hTAS1R2-VFT assessed by intrinsic tryptophan fluorescence. Titration curves of hTAS1R2-VFT were generated with natural sugars (pink circles) or sweeteners (blue circles). Circles show experimental data, while the solid lines are the computed binding curves; excitation and emission wavelengths were 295 nm and 340 nm, respectively; hTAS1R2-VFT concentration, 0.5 µM. Data points correspond to the means ± SEMs of at least 12 independent replicates of at least three independently refolded protein samples, except for glucose, 6 independent replicates over three independently refolded protein samples.
All measurements were conducted at 20 °C using a Cary Eclipse spectrofluorimeter (Agilent Technologies, Santa Clara, CA, USA) equipped with a Peltier temperature control unit with a 5 nm bandwidth for emission and excitation. Ligand binding experiments with 0.5 µM hTAS1R2-VFTs were performed in buffer composed of 50 mM Tris-HCl pH 8, 150 mM NaCl, 0.5 mM DDM and 1 mM DTT. The intrinsic fluorescence of hTAS1R2-VFTs was measured at an excitation wavelength of 295 nm, and emission spectra were recorded from 320 to 380 nm. Fluorescence emission values were collected at 340 nm wavelength in the presence and absence of sweet ligands. A range of ligand concentrations were freshly prepared in 50 mM Tris-HCl pH 8.0. For titration experiments, successive 0.4 µL aliquots of sweeteners were added to 400 µL of hTAS1R2-VFT solution. Fluorescence measurements were corrected for bleaching, dilution and nonspecific buffer quenching. The dissociation constants (Kd) were calculated from a plot of the ratio between the fluorescence intensity variation and the maximum fluorescence intensity variation (ΔF/ΔFmax) versus the concentration of the total ligand. Assuming that the binding of hTAS1R2-VFT to sweet compounds is described by a one-site binding model, the Kd values of ligand–receptor interactions were determined with a standard nonlinear regression method using SigmaPlot 12.5 software (Systat Software, Inc., San Jose, CA, USA) as previously described. For each ligand, the experiment was repeated on at least twelve cells over at least three different batches of refolded hTAS1R2-VFT.

[1] = tested on: full-length hTAS1R2/hTAS1R3 receptor E382A; parameters: method as in PMID 22536376; settings: cellular assays; cited from earlier work
[2] = molecular target: T2, human TAS1R2/TAS1R3 receptor (Homo sapiens, UniProt Q7RTX0+Q8TE23); settings: cellular assays, cited from earlier work
T2 sequence (Q8TE23 20-839): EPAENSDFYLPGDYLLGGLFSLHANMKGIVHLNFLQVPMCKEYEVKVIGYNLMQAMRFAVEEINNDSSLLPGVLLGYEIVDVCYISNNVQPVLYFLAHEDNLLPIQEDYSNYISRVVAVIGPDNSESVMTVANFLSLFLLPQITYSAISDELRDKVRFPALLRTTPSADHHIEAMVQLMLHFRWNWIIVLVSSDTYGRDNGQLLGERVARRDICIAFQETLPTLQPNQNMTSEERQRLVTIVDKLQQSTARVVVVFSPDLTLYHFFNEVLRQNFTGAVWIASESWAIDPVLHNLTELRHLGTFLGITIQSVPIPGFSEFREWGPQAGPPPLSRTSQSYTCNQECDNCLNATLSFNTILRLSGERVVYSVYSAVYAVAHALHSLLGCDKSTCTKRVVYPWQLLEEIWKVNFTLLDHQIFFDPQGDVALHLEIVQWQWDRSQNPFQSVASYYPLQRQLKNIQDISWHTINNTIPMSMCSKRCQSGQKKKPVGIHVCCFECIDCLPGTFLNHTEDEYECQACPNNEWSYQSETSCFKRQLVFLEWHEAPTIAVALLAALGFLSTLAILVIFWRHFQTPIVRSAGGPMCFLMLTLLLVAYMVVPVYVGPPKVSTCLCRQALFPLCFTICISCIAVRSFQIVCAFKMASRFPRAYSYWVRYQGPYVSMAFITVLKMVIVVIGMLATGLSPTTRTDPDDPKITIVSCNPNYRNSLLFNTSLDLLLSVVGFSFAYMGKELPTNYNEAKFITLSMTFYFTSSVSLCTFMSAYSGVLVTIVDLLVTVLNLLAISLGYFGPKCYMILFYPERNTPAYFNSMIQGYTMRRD
T2 sequence (Q7RTX0 21-852): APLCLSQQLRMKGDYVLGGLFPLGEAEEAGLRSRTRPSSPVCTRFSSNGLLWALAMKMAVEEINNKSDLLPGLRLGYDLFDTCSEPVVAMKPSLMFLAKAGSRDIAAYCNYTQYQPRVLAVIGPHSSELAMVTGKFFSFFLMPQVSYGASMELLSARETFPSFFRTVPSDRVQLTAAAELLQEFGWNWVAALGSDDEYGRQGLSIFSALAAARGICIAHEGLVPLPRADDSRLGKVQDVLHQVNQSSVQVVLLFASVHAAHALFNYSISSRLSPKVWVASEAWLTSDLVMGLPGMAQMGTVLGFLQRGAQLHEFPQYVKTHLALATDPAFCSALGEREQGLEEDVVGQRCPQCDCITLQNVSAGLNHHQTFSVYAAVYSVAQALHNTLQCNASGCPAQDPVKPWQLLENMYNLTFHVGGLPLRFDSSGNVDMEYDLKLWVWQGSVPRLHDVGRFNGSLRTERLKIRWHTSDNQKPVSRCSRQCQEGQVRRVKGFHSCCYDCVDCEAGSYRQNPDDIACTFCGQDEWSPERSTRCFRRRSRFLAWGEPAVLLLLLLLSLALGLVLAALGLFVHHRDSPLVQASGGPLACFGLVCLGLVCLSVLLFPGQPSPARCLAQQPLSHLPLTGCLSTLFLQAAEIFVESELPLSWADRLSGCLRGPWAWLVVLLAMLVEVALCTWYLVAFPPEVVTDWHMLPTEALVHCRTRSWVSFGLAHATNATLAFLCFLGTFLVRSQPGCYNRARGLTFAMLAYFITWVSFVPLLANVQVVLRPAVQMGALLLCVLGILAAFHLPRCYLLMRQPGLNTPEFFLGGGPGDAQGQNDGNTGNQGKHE

hTAS1R2-VFT-D278A = molecular target: T3, hTAS1R2-VFT-D278A (Homo sapiens, UniProt Q8TE23, D278A); test: Intrinsic tryptophan fluorescence ligand binding, mutant D278A; settings: Table 2, read-out: Apparent Kd hTAS1R2-VFT-D278A
T3 construct: followed by hTAS1R2-VFT (Ala22-Ser493) and another His6-tag at the C-terminus; His6 (thrombin-cleavable) (N); made in house
T3 sequence (Q8TE23 22-493 D278A): T1 sequence (Q8TE23 22-493) with D257A
From the text: To further confirm that the binding is specific, we performed mutagenesis studies on hTAS1R2-VFT. […] We performed ligand-binding titration assays in the same way as for hTAS1R2-VFT for the two point mutants.
Figure 5 Titration curves of hTAS1R2-VFT-D278A (blue triangles) and hTAS1R2-VFT (black circles) with sucralose (A) and aspartame (B). Circles and triangles show experimental data, while the solid lines are the computed binding curves. Wild-type receptor dose–responses are the same as for Figure 4. Data points correspond to the means ± SEMs of at least 12 independent replicates of at least three independently refolded protein samples.
All measurements were conducted at 20 °C using a Cary Eclipse spectrofluorimeter (Agilent Technologies, Santa Clara, CA, USA) equipped with a Peltier temperature control unit with a 5 nm bandwidth for emission and excitation. Ligand binding experiments with 0.5 µM hTAS1R2-VFTs were performed in buffer composed of 50 mM Tris-HCl pH 8, 150 mM NaCl, 0.5 mM DDM and 1 mM DTT. The intrinsic fluorescence of hTAS1R2-VFTs was measured at an excitation wavelength of 295 nm, and emission spectra were recorded from 320 to 380 nm. Fluorescence emission values were collected at 340 nm wavelength in the presence and absence of sweet ligands. […] Fluorescence measurements were corrected for bleaching, dilution and nonspecific buffer quenching. […]

[3] = tested on: full-length hTAS1R2/hTAS1R3 receptor D278A; parameters: method as in PMID 22536376; settings: cellular-based assay; cited from earlier work
[4] = molecular target: T2, human TAS1R2/TAS1R3 receptor; test: Cellular-based assay of the sweet taste receptor (EC50); assay type: cell-based
From the text: We determined its affinity constants for natural sugars using dose–response curves.

human TAS1R3-VFT = molecular target: human TAS1R3-VFT; parameters: method as in PMID 22450161; settings: cited from earlier work
[5] = in water equivalent to 5% sucrose, ref Shallenberger, 1993
[6] = Table 1, intrinsic fluorescence, 0.5 µM protein, 20 °C, pH 8, read-out: hTAS1R2-VFT (Kd)
[7] = in water equivalent to 2% sucrose, ref Schiffman and Gatlin, 1993
[8] = in water equivalent to 2% sucrose, ref Bassoli et al., 2002

Structure (SMILES) | Kd (hTAS1R2-VFT; [6]) | Sweetness Potency (human panels; [7]) | also measured
OC[C@H]1O[C@@H](O[C@H]2[C@H](O)[C@@H](O)C(O)O[C@@H]2CO)[C@H](O)[C@@H](O)[C@H]1O (mixture of isomers) [Lactose] | > 70000 µM | – | Sweetness Potency (human panels; [5]): 0.3 ^f
CC1=CC(=O)NS(=O)(=O)O1 [Acesulfame-K] | 0.9 ± 0.2 µM | 200 ^e | effect of E382A on the full-length receptor response [1]: abolishes
C[C@@H](NC(=O)[C@@H](N)CC(=O)O)C(=O)NC1C(C)(C)SC1(C)C [Alitame] | 0.15 ± 0.03 µM | 4500 ^e | EC50 ([2]; ref unpublished data obtained from collaborators): 13.8 ± 0.3 µM
COC(=O)[C@H](Cc1ccccc1)NC(=O)[C@@H](N)CC(=O)O [Aspartame] (H-Asp-Phe-OMe) | 17.2 ± 3.1 µM | 250 ^e | Kd (hTAS1R2-VFT-D278A): 223 ± 27.7 µM; EC50 ([2]; ref Masuda et al., 2012): 75 ± 11 µM; effect of D278A on the full-length receptor response [3]: decrease the response
O=S(=O)(O)NC1CCCCC1 [Cyclamate] | – | 26 ^e | –
O=C(CO)[C@@H](O)[C@H](O)[C@H](O)CO [Fructose] | – | 0.7 ^e | Kd (hTAS1R2-VFT): 900 ± 200 µM; EC50 [4]: 8000 ± 4000 µM
OC[C@H]1OC(O)[C@H](O)[C@@H](O)[C@@H]1O (some centres unmarked) [Glucose] | 1500 ± 300 µM | – | Sweetness Potency (human panels; [5]): 0.6 ^f
COC(=O)[C@H](Cc1ccccc1)NC(=O)[C@H](CC(=O)O)NCCC(C)(C)C [Neotame] | 0.09 ± 0.02 µM | – | Sweetness Potency (human panels; [8]): 11,000 ^g
C=C(C)[C@@H]1CC=C(/C=N/O)CC1 [Perillartine] | – | – | Sweetness Potency (human panels; [8]): 1000 ^g; EC50 ([2]; ref Belloir et al., 2021): 2.54 ± 0.48 µM
O=C1NS(=O)(=O)c2ccccc21 [Saccharin] | – | 500 ^e | –
OC[C@H]1O[C@H](O[C@]2(CCl)O[C@H](CCl)[C@@H](O)[C@@H]2O)[C@H](O)[C@@H](O)[C@H]1Cl [Sucralose] | 7 ± 1.3 µM | 600 ^e | effect of E382A on the full-length receptor response [1]: reduces; effect of D278A on the full-length receptor response [3]: abolish the response; binding affinity for human TAS1R3-VFT (human TAS1R3-VFT): millimolar range
OC[C@H]1O[C@@](CO)(O[C@H]2O[C@H](CO)[C@@H](O)[C@H](O)[C@H]2O)[C@@H](O)[C@@H]1O [Sucrose] | 4200 ± 900 µM | 1 ^e | EC50 ([4]; cellular assays, unpublished data from our laboratory, read-out: EC50): 11000 ± 3000 µM
